Tested on: MV-4-11 cells
Assay: Gene expression microarray analysis (Affymetrix PrimeView) and GSEA
Type: cell-based, human
Set-up: RFU PODN (11730768_x_at) / Fold change /veh PODN (11730768_x_at) / RFU LINC00158 (11744669_a_at) / Fold change /veh LINC00158 (11744669_a_at) / RFU DUSP10 (11751237_a_at) / Fold change /veh DUSP10 (11751237_a_at) / RFU ID3 (11757404_x_at) / Fold change /veh ID3 (11757404_x_at) / RFU PLEKHG5 (11737974_s_at) / Fold change /veh PLEKHG5 (11737974_s_at) / RFU LRRC4B (11730491_at) / Fold change /veh LRRC4B (11730491_at) / RFU GIMAP4 (11747438_a_at) / Fold change /veh GIMAP4 (11747438_a_at) / RFU KRT8 (11758183_x_at) / Fold change /veh KRT8 (11758183_x_at) / RFU CNN1 (11734310_a_at) / Fold change /veh CNN1 (11734310_a_at) / RFU VPS37D (11726825_at) / Fold change /veh VPS37D (11726825_at) / RFU C10orf10 (11716522_x_at) / Fold change /veh C10orf10 (11716522_x_at) / RFU KIR2DL2 /// KIR2DL4 /// KIR2DL5A /// KIR2DL5B /// KIR2DS1 /// KIR2DS2 /// KIR2DS3 /// KIR2DS4 /// KIR3DL3 /// KIR3DL3 /// KIR3DS1 (11738374_at) / Fold change /veh KIR2DL2 /// KIR2DL4 /// KIR2DL5A /// KIR2DL5B /// KIR2DS1 /// KIR2DS2 /// KIR2DS3 /// KIR2DS4 /// KIR3DL3 /// KIR3DL3 /// KIR3DS1 (11738374_at) / RFU C1QL1 (11718748_at) / Fold change /veh C1QL1 (11718748_at) / RFU TMPRSS4 (11747572_a_at) / Fold change /veh TMPRSS4 (11747572_a_at) / RFU HAMP (11756126_x_at) / Fold change /veh HAMP (11756126_x_at) / RFU RNFT2 (11725882_a_at) / Fold change /veh RNFT2 (11725882_a_at) / RFU NR4A2 (11747474_a_at) / Fold change /veh NR4A2 (11747474_a_at) / RFU ABCC12 (11746883_a_at) / Fold change /veh ABCC12 (11746883_a_at) / RFU TMEM136 (11760407_x_at) / Fold change /veh TMEM136 (11760407_x_at) / RFU CLDN22 /// WWC2 (11732394_at) / Fold change /veh CLDN22 /// WWC2 (11732394_at) / RFU HLA-DPB1 (11760878_x_at) / Fold change /veh HLA-DPB1 (11760878_x_at) / RFU SPINT1 (11716480_a_at) / Fold change /veh SPINT1 (11716480_a_at) / RFU GAP43 (11754022_s_at) / Fold change /veh GAP43 (11754022_s_at) / RFU A4GNT (11735810_at) / Fold change /veh A4GNT (11735810_at) / RFU PRB3 (11715151_x_at) / Fold change /veh PRB3 (11715151_x_at) / RFU TUBB4B (11761932_at) / Fold change /veh TUBB4B (11761932_at) / RFU CAPN14 (11732068_a_at) / Fold change /veh CAPN14 (11732068_a_at) / RFU TMCC2 (11721928_a_at) / Fold change /veh TMCC2 (11721928_a_at) / RFU IRGQ (11745062_a_at) / Fold change /veh IRGQ (11745062_a_at) / RFU FAM174B (11720279_a_at) / Fold change /veh FAM174B (11720279_a_at) / RFU TMPRSS4 (11748680_a_at) / Fold change /veh TMPRSS4 (11748680_a_at) / RFU FAM212B (11763350_a_at) / Fold change /veh FAM212B (11763350_a_at) / RFU PLEKHG5 (11743358_a_at) / Fold change /veh PLEKHG5 (11743358_a_at) / RFU ZSCAN30 (11745921_a_at) / Fold change /veh ZSCAN30 (11745921_a_at) / RFU CMKLR1 (11741424_a_at) / Fold change /veh CMKLR1 (11741424_a_at) / RFU LOC101060620 /// MAPK8IP1 (11723275_at) / Fold change /veh LOC101060620 /// MAPK8IP1 (11723275_at) / RFU SPTSSB (11747773_x_at) / Fold change /veh SPTSSB (11747773_x_at) / RFU PRSS12 (11739890_at) / Fold change /veh PRSS12 (11739890_at) / RFU BIN1 (11741810_x_at) / Fold change /veh BIN1 (11741810_x_at) / RFU WNT11 (11732464_a_at) / Fold change /veh WNT11 (11732464_a_at) / RFU C10orf10 (11716521_a_at) / Fold change /veh C10orf10 (11716521_a_at) / RFU C5orf56 (11738089_at) / Fold change /veh C5orf56 (11738089_at) / RFU CYB561 (11721691_x_at) / Fold change /veh CYB561 (11721691_x_at) / RFU ANKRD19P (11752326_a_at) / Fold change /veh ANKRD19P (11752326_a_at) / RFU OR2T12 /// OR2T33 /// OR2T8 (11738714_s_at) / Fold change /veh OR2T12 /// OR2T33 /// OR2T8 (11738714_s_at) / RFU VCAN (11748164_a_at) / Fold change /veh VCAN (11748164_a_at) / RFU JSRP1 (11732532_at) / Fold change /veh JSRP1 (11732532_at) / RFU KRTAP10-11 (11738290_x_at) / Fold change /veh KRTAP10-11 (11738290_x_at) / RFU MYO3A (11730013_a_at) / Fold change /veh MYO3A (11730013_a_at) / RFU EBF3 (11725865_a_at) / Fold change /veh EBF3 (11725865_a_at) / RFU CAMK2N1 (11719241_x_at) / Fold change /veh CAMK2N1 (11719241_x_at) / RFU C5orf56 (11738088_a_at) / Fold change /veh C5orf56 (11738088_a_at) / RFU OLFML3 (11715873_a_at) / Fold change /veh OLFML3 (11715873_a_at) / RFU LOC100653217 /// NTM (11731650_a_at) / Fold change /veh LOC100653217 /// NTM (11731650_a_at) / RFU MAPK11 (11762145_a_at) / Fold change /veh MAPK11 (11762145_a_at) / RFU FIZ1 (11724087_x_at) / Fold change /veh FIZ1 (11724087_x_at) / RFU OASL (11726364_x_at) / Fold change /veh OASL (11726364_x_at) / RFU SOX15 (11748057_x_at) / Fold change /veh SOX15 (11748057_x_at) / RFU CD79A (11719716_a_at) / Fold change /veh CD79A (11719716_a_at) / RFU HIST1H1D (11736915_at) / Fold change /veh HIST1H1D (11736915_at) / RFU CASKIN2 (11723855_a_at) / Fold change /veh CASKIN2 (11723855_a_at) / RFU LOC730098 (11760151_x_at) / Fold change /veh LOC730098 (11760151_x_at) / RFU OR4N2 (11742367_at) / Fold change /veh OR4N2 (11742367_at) / RFU PRRT2 (11749266_a_at) / Fold change /veh PRRT2 (11749266_a_at) / RFU SNX32 (11753110_a_at) / Fold change /veh SNX32 (11753110_a_at) / RFU CDHR5 (11726645_a_at) / Fold change /veh CDHR5 (11726645_a_at) / RFU RCAN1 (11760418_a_at) / Fold change /veh RCAN1 (11760418_a_at) / RFU FAM167A (11723789_a_at) / Fold change /veh FAM167A (11723789_a_at) / RFU FAM26E (11764081_at) / Fold change /veh FAM26E (11764081_at) / RFU ISYNA1 (11749810_s_at) / Fold change /veh ISYNA1 (11749810_s_at) / RFU ACY1 (11761880_at) / Fold change /veh ACY1 (11761880_at) / RFU 11764098_at / Fold change /veh 11764098_at / RFU SAMD14 (11745864_x_at) / Fold change /veh SAMD14 (11745864_x_at) / RFU NPB (11741838_a_at) / Fold change /veh NPB (11741838_a_at) / RFU TMPRSS6 (11731388_a_at) / Fold change /veh TMPRSS6 (11731388_a_at) / RFU KRTAP10-2 (11738614_at) / Fold change /veh KRTAP10-2 (11738614_at) / RFU ARHGAP8 /// PRR5-ARHGAP8 (11727945_x_at) / Fold change /veh ARHGAP8 /// PRR5-ARHGAP8 (11727945_x_at) / RFU KRTAP5-7 /// NADSYN1 (11734609_at) / Fold change /veh KRTAP5-7 /// NADSYN1 (11734609_at) / RFU RASL12 (11751679_a_at) / Fold change /veh RASL12 (11751679_a_at) / RFU CDKN2B (11736163_a_at) / Fold change /veh CDKN2B (11736163_a_at) / RFU PRF1 (11729649_at) / Fold change /veh PRF1 (11729649_at) / RFU, ZNF638 /// ZNF638-IT1 / Fold change vs veh, ZNF638 /// ZNF638-IT1 / RFU, PANK3 / Fold change vs veh, PANK3 / RFU, SH3YL1 / Fold change vs veh, SH3YL1 / RFU, ZEB2 / Fold change vs veh, ZEB2 / RFU, NRIP1 / Fold change vs veh, NRIP1 / RFU, PTTG1IP / Fold change vs veh, PTTG1IP / RFU, CAPN2 / Fold change vs veh, CAPN2 / RFU, MED14 / Fold change vs veh, MED14 / RFU, SNORA58 / Fold change vs veh, SNORA58 / RFU, C1orf63 / Fold change vs veh, C1orf63 / RFU, LRRFIP1 / Fold change vs veh, LRRFIP1 / RFU, NDUFAF7 / Fold change vs veh, NDUFAF7 / RFU, SLC12A2 / Fold change vs veh, SLC12A2 / RFU, IBTK / Fold change vs veh, IBTK / RFU, ESF1 / Fold change vs veh, ESF1 / Fold change vs veh, TMEM50B / RFU, TAOK1 / Fold change vs veh, TAOK1 / RFU, ACBD3 / Fold change vs veh, ACBD3 / RFU, TMA16 / Fold change vs veh, TMA16 / RFU, RWDD3 / Fold change vs veh, RWDD3 / RFU, BCAT1 / Fold change vs veh, BCAT1 / RFU, EDEM3 / Fold change vs veh, EDEM3 / RFU, TMEM33 / Fold change vs veh, TMEM33 / RFU, WDR75 / Fold change vs veh, WDR75 / RFU, AHCTF1 / Fold change vs veh, AHCTF1 / RFU, TFRC / Fold change vs veh, TFRC / RFU, ZDHHC17 / Fold change vs veh, ZDHHC17 / RFU, NOM1 / Fold change vs veh, NOM1 / RFU, ARL8B / Fold change vs veh, ARL8B / RFU, ZBTB11 / Fold change vs veh, ZBTB11 / RFU, TAMM41 / Fold change vs veh, TAMM41 / RFU, KIAA1704 /// LOC100996395 / Fold change vs veh, KIAA1704 /// LOC100996395 / RFU, ING1 / Fold change vs veh, ING1 / RFU, TRMT61B / Fold change vs veh, TRMT61B / RFU, FUBP3 / Fold change vs veh, FUBP3 / RFU, TP53 / Fold change vs veh, TP53 / RFU, TNKS2 / Fold change vs veh, TNKS2 / RFU, ZFP14 / Fold change vs veh, ZFP14 / RFU, ACTR2 / Fold change vs veh, ACTR2 / RFU, PPP3R1 / Fold change vs veh, PPP3R1 / RFU, PIK3R1 / Fold change vs veh, PIK3R1 / RFU, HNRNPA1 / Fold change vs veh, HNRNPA1 / RFU, RNF170 / Fold change vs veh, RNF170 / RFU, ZNF28 / Fold change vs veh, ZNF28 / RFU, RNGTT / Fold change vs veh, RNGTT / RFU, OGT / Fold change vs veh, OGT / RFU, BRD1 / Fold change vs veh, BRD1 / RFU, MARS / Fold change vs veh, MARS / RFU, ZNF655 / Fold change vs veh, ZNF655 / RFU, FAHD1 / Fold change vs veh, FAHD1 / RFU, BDP1 / Fold change vs veh, BDP1 / RFU, LRRCC1 / Fold change vs veh, LRRCC1 / RFU, ARID1A / Fold change vs veh, ARID1A / RFU, ZNF146 / Fold change vs veh, ZNF146 / RFU, ZNF330 / Fold change vs veh, ZNF330 / RFU, GPN3 / Fold change vs veh, GPN3 / RFU, C9orf123 / Fold change vs veh, C9orf123 / RFU, N4BP2L2 / Fold change vs veh, N4BP2L2 / RFU, ARFIP1 / Fold change vs veh, ARFIP1 / RFU, FAM179B / Fold change vs veh, FAM179B / RFU, BCL10 / Fold change vs veh, BCL10 / RFU, UHRF1BP1L / Fold change vs veh, UHRF1BP1L / RFU, BET1 / Fold change vs veh, BET1 / RFU, CNOT2 / Fold change vs veh, CNOT2 / RFU, ZNF268 / Fold change vs veh, ZNF268 / Fold change vs veh, ZNF507 / RFU, DGCR2 / Fold change vs veh, DGCR2 / RFU, WDSUB1 / Fold change vs veh, WDSUB1 / Fold change vs veh, HSP90B1 /// MIR3652 / RFU, ADSS / Fold change vs veh, ADSS / RFU, GK / Fold change vs veh, GK / RFU, ZNF148 / Fold change vs veh, ZNF148 / RFU, TAF9 / Fold change vs veh, TAF9 / RFU, SLC1A5 / Fold change vs veh, SLC1A5 / RFU, SLMO2 / Fold change vs veh, SLMO2 / RFU, ABCC4 / Fold change vs veh, ABCC4 / RFU, LOC101060439 /// RAP1B / Fold change vs veh, LOC101060439 /// RAP1B / RFU, RFX7 / Fold change vs veh, RFX7 / RFU, GTPBP10 / Fold change vs veh, GTPBP10 / RFU, CNEP1R1 / Fold change vs veh, CNEP1R1 / RFU, BIVM-ERCC5 /// ERCC5 / Fold change vs veh, BIVM-ERCC5 /// ERCC5 / RFU, ILF3 / Fold change vs veh, ILF3 / RFU 11762660_at / Fold change /veh 11762660_at / RFU VCAN (11757783_s_at) / Fold change /veh VCAN (11757783_s_at) / RFU DDX43 (11728927_at) / Fold change /veh DDX43 (11728927_at) / RFU KRT8 (11758188_x_at) / Fold change /veh KRT8 (11758188_x_at) / RFU NKD1 (11759106_at) / Fold change /veh NKD1 (11759106_at) / RFU SRD5A1 (11742802_a_at) / Fold change /veh SRD5A1 (11742802_a_at) / RFU TPSAB1 /// TPSB2 (11721975_s_at) / Fold change /veh TPSAB1 /// TPSB2 (11721975_s_at) / RFU GSTM3 (11746129_a_at) / Fold change /veh GSTM3 (11746129_a_at) / RFU IL23R (11737362_x_at) / Fold change /veh IL23R (11737362_x_at) / RFU TMEM51 (11727254_a_at) / Fold change /veh TMEM51 (11727254_a_at) / RFU PIWIL2 (11732686_x_at) / Fold change /veh PIWIL2 (11732686_x_at) / RFU ORM1 (11744905_x_at) / Fold change /veh ORM1 (11744905_x_at) / RFU CCDC152 (11743942_at) / Fold change /veh CCDC152 (11743942_at) / RFU ECM1 (11717891_a_at) / Fold change /veh ECM1 (11717891_a_at) / RFU IL23R (11748794_a_at) / Fold change /veh IL23R (11748794_a_at) / RFU TNFAIP8L3 (11732012_x_at) / Fold change /veh TNFAIP8L3 (11732012_x_at) / RFU MBOAT4 (11741988_at) / Fold change /veh MBOAT4 (11741988_at) / RFU 11764193_at / Fold change /veh 11764193_at / RFU TMEM53 (11763286_at) / Fold change /veh TMEM53 (11763286_at) / RFU MAGEB2 (11727129_at) / Fold change /veh MAGEB2 (11727129_at) / RFU TMEM200A (11744735_a_at) / Fold change /veh TMEM200A (11744735_a_at) / RFU CCDC152 (11751479_a_at) / Fold change /veh CCDC152 (11751479_a_at) / RFU FAM211A (11726209_a_at) / Fold change /veh FAM211A (11726209_a_at) / RFU RGS16 (11746705_a_at) / Fold change /veh RGS16 (11746705_a_at) / RFU VCAN (11755009_s_at) / Fold change /veh VCAN (11755009_s_at) / RFU RHOB (11743442_s_at) / Fold change /veh RHOB (11743442_s_at) / RFU RGS16 (11720943_a_at) / Fold change /veh RGS16 (11720943_a_at) / RFU RGS16 (11720944_at) / Fold change /veh RGS16 (11720944_at) / RFU, VPS4B / Fold change vs veh, VPS4B / RFU, CREB1 / Fold change vs veh, CREB1 / RFU, DNAJC13 / Fold change vs veh, DNAJC13 / RFU, GNAQ / Fold change vs veh, GNAQ / RFU, CDK5R1 / Fold change vs veh, CDK5R1 / RFU, ZRANB3 / Fold change vs veh, ZRANB3 / RFU, CUL4A / Fold change vs veh, CUL4A / RFU, CCNY / Fold change vs veh, CCNY / RFU, UFL1 / Fold change vs veh, UFL1 / RFU, COG3 / Fold change vs veh, COG3 / RFU, DIAPH2 / Fold change vs veh, DIAPH2 / RFU, SKA2 / Fold change vs veh, SKA2 / RFU, AFF3 / Fold change vs veh, AFF3 / RFU, LMF1 / Fold change vs veh, LMF1 / RFU, IPO11 / Fold change vs veh, IPO11 / RFU, DFFB / Fold change vs veh, DFFB / RFU, FOXP1 / Fold change vs veh, FOXP1 / RFU, CARD8 / Fold change vs veh, CARD8 / RFU, STRN3 / Fold change vs veh, STRN3 / RFU, ADK / Fold change vs veh, ADK / RFU, RASSF2 / Fold change vs veh, RASSF2 / RFU, WIPF1 / Fold change vs veh, WIPF1 / RFU, LARP1B / Fold change vs veh, LARP1B / RFU, RASA1 / Fold change vs veh, RASA1 / RFU, RB1 / Fold change vs veh, RB1 / RFU, PPFIA1 / Fold change vs veh, PPFIA1 / RFU, MAT2A / Fold change vs veh, MAT2A / RFU, CCT5 / Fold change vs veh, CCT5 / RFU, WDR92 / Fold change vs veh, WDR92 / RFU, CUX1 / Fold change vs veh, CUX1 / RFU, TTC7A / Fold change vs veh, TTC7A / RFU, TMEM135 / Fold change vs veh, TMEM135 / RFU, DEPTOR / Fold change vs veh, DEPTOR / RFU, CPM / Fold change vs veh, CPM / RFU, DNAJB6 / Fold change vs veh, DNAJB6 / RFU, CACNA2D3 / Fold change vs veh, CACNA2D3 / RFU, DTX4 / Fold change vs veh, DTX4 / RFU, TFCP2 / Fold change vs veh, TFCP2 / RFU, GMCL1 /// GMCL1P1 / Fold change vs veh, GMCL1 /// GMCL1P1 / RFU, AEBP2 / Fold change vs veh, AEBP2 / RFU, SNHG1 /// SNORD22 /// SNORD25 /// SNORD26 /// SNORD27 /// SNORD28 /// SNORD29 /// SNORD31 / Fold change vs veh, SNHG1 /// SNORD22 /// SNORD25 /// SNORD26 /// SNORD27 /// SNORD28 /// SNORD29 /// SNORD31 / Fold change (Aza/veh), C12orf56 (ProbeSet 11735607_a_at) / Fold change (ACY-1035/veh), C12orf56 (ProbeSet 11735607_a_at) / Fold change (Aza/veh), FGFR1OP (ProbeSet 11751329_s_at) / Fold change (ACY-1035/veh), FGFR1OP (ProbeSet 11751329_s_at) / Fold change (Aza/veh), VPS36 (ProbeSet 11739960_a_at) / Fold change (ACY-1035/veh), VPS36 (ProbeSet 11739960_a_at) / RFU SYPL1 (11715823_x_at) / Fold change /veh SYPL1 (11715823_x_at) / RFU IGFBP7 (11715501_s_at) / Fold change /veh IGFBP7 (11715501_s_at) / RFU REEP3 (11722064_at) / Fold change /veh REEP3 (11722064_at) / RFU IGLL1 (11728026_x_at) / Fold change /veh IGLL1 (11728026_x_at): dose or concentration left out as unconfirmed
Conditions: ProbeSet 11749477_a_at; LIST B

## Nc1ccc(-c2cccs2)cc1NC(=O)c1ccc2c(c1)cc(C1CC1)n2CCN1CCOCC1 [ACY-1035]
  RFU, EDEM3: 51.94 RFU

From article PMC5218480 (PLoS ONE, 2017)
